Experimental data as given in ChEMBL document CHEMBL1147386, “Pantherinine, a cytotoxic aromatic alkaloid, and 7-deazainosine from the ascidian Aplidium pantherinum” (1993).
Values after ≈ are worked out from the molar mass of the structure shown.

Test system: P388
Assay: Cytotoxicity against mouse P388 cells
Format: functional

Nc1ncnc2c1ccn2[C@@H]1O[C@H](CO)[C@@H](O)[C@H]1O
Activity: Toxic

NC1=Cc2nc3ccc(Br)cc3c3ccnc(c23)C1=O [PANTHERININE]
EC50 (read-out: ED50 (the source's name)): 4.5 µg/mL (≈ 13.8 µM)
